Experimental data: patent publication US9346813B2, “Substituted pyrrolo[2,3-d]pyrimindines as CDK9 kinase inhibitors” (AbbVie Inc., priority 2014, dated 2016)

Experiments:
H929 cells = assay: Cell viability assay in H929 cells (Cell TiterGlo); assay type: cell-based; settings: Homo sapiens, NCI-H929, 24 hours at 37° C.
Experimental: Cell viability assays were performed using A431 or H929 cells. A431 cells were seeded in 96-well plates at 10,000 cells/well, and after overnight incubation, treated with compounds at 2-times the final concentration to result in a dose response of 3-fold dilutions from 10 μM to 0.0005 μM (50 μL/well, 0.1% final DMSO concentration). H929 cells were seeded in 96-well plates at 10,000 cells/well and treated immediately with compounds as described above. After 24 hours at 37° C., cell viability was measured using Cell TiterGlo reagent (Promega) with a luminescence reader. Alternately, cell viability assays were performed in 384-well format. A431 cells were seeded in 384-well plates at 2500 cells/well and, after overnight incubation, treated with compounds in a dose response of 3-fold dilutions from 10 μM to 0.0005 μM (25 nL/well, 0.1% final DMSO concentration). For the H929 viability assay, 25 nL/well of the compounds was dispensed into 384-well plates in a dose response as described above and cells were immediately seeded in 384-well plates at 2500 cells/well. After 24 hours at 37° C., cell viability was measured using Cell TiterGlo reagent (Promega) with a luminescence reader.

CDK9/Cyclin T1 = biological target: T1, CDK9/Cyclin T1 (Homo sapiens, UniProt P50750); assay: CDK9 enzyme protocol (LANCE ULight TR-FRET kinase assay); assay type: biochemical; settings: 4 nM CDK9/Cyclin T1, 1000 μM ATP, 100 nM U-light MBP peptide, 30 minutes
T1 construct: purchased Carna Biosciences 04-110
T1 sequence (P50750 whole entry): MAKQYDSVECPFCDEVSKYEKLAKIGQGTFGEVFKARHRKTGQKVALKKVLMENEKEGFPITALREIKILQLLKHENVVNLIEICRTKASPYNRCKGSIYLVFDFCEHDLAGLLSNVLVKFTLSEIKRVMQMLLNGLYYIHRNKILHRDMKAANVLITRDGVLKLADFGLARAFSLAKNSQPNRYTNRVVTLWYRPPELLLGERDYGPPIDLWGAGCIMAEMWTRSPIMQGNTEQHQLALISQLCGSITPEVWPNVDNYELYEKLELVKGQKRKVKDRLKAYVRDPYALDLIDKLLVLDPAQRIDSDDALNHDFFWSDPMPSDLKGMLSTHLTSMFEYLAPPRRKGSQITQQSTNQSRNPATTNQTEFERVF
T1 sequence (O60563 whole entry partner): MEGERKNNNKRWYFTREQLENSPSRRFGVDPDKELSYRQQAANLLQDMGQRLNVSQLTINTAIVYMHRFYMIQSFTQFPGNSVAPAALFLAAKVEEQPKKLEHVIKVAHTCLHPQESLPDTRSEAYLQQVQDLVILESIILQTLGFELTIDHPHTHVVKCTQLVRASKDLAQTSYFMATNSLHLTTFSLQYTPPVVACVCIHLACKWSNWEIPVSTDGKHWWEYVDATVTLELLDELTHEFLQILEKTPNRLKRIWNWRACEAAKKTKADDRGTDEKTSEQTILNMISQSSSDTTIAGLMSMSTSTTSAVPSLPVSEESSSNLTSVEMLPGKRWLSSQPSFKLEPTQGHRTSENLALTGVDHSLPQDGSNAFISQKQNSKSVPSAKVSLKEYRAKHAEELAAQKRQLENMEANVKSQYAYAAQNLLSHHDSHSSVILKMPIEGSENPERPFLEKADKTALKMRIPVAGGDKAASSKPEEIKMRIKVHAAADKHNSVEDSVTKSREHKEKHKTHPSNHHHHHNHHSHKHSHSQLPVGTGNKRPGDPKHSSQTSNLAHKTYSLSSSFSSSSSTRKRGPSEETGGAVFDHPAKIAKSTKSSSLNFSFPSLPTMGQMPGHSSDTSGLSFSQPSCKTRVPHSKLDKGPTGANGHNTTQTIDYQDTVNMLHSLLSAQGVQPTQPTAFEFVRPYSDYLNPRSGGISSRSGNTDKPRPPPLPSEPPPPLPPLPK
Experimental: CDK9 enzyme activities were measured using LANCE ULight TR-FRET kinase assay reagents (PerkinElmer, Waltham, Mass.). Compounds were directly added in 100% DMSO to white low volume assay plates (Perkin Elmer Proxiplate 6008289) using a Labcyte Echo acoustic dispenser. Assay reagents in serine/threonine kinase assay buffer containing 20 mM HEPES, 10 mM MgCl2, 100 mM Na3VO4, and 0.0075% Triton X-100. were added for final reaction mixture concentrations of 1000 μM ATP, 100 nM U-light MBP peptide (Perkin Elmer TRF0109M) and reaction initiated with 4 nM CDK9/Cyclin T1 (Carna Biosciences 04-110). The kinase reaction was carried out for 30 minutes before addition of stopping buffer to a final of 20 mM EDTA and 0.5 nM of LANCE Ultra Europium anti-phospho-MBP antibody (PerkinElmer TRF0201M) in LANCE detection buffer (PerkinElmer CR97-100). The reaction was equilibrated for 1 hour and the signal read in the Perkin Elmer Envision in TR-FRET mode (excitation at 320 nm and emission at 615/665 nm).

SMILES	EC50 (H929 cells) [nM]	IC50 (CDK9/Cyclin T1) [nM]
COc1ccc(F)cc1-c1ncnc2[nH]c(C3=CCN(C(C)=O)CC3)cc12 [Example 6, 1-{4-[4-(5-fluoro-2-methoxyphenyl)-7H-pyrrolo[2,3-d]pyrimidin-6-yl]-3,6-dihydropyridin-1(2H)-yl}ethanone]	410	42
COc1ccc(F)cc1-c1ncnc2[nH]c(C3=CCN(S(=O)(=O)C4CC4)CC3)cc12 [Example 8, 6-[1-(cyclopropylsulfonyl)-1,2,3,6-tetrahydropyridin-4-yl]-4-(5-fluoro-2-methoxyphenyl)-7H-pyrrolo[2,3-d]pyrimidine]	690	19
COc1ccc(F)cc1-c1ncnc2[nH]c(C3=CCN(S(=O)(=O)C(C)C)CC3)cc12 [Example 10, 4-(5-fluoro-2-methoxyphenyl)-6-[1-(propan-2-ylsulfonyl)-1,2,3,6-tetrahydropyridin-4-yl]-7H-pyrrolo[2,3-d]pyrimidine]	550	160
COc1ccc(F)cc1-c1ncnc2[nH]c(C3=CCN(C(=O)C4CC4)CC3)cc12 [Example 11, cyclopropyl{4-[4-(5-fluoro-2-methoxyphenyl)-7H-pyrrolo[2,3-d]pyrimidin-6-yl]-3,6-dihydropyridin-1(2H)-yl}methanone]	310	43
COc1ccc(F)cc1-c1ncnc2[nH]c(C3=CCN(C(=O)C4CCN4)CC3)cc12 (centres unmarked) [Example 12, azetidin-2-yl{4-[4-(5-fluoro-2-methoxyphenyl)-7H-pyrrolo[2,3-d]pyrimidin-6-yl]-3,6-dihydropyridin-1(2H)-yl}methanone]	930	88
COc1ccc(F)cc1-c1ncnc2[nH]c(C3=CCN(C(=O)C4CC(=O)N4)CC3)cc12 (centres unmarked) [Example 13, 4-({4-[4-(5-fluoro-2-methoxyphenyl)-7H-pyrrolo[2,3-d]pyrimidin-6-yl]-3,6-dihydropyridin-1(2H)-yl}carbonyl)azetidin-2-one]	840	69
COc1ccc(F)cc1-c1ncnc2[nH]c(C3=CCN(C(=O)C4CCC(=O)NC4)CC3)cc12 (centres unmarked) [Example 14, 5-({4-[4-(5-fluoro-2-methoxyphenyl)-7H-pyrrolo[2,3-d]pyrimidin-6-yl]-3,6-dihydropyridin-1(2H)-yl}carbonyl)piperidin-2-one]	1700	65
COc1ccc(F)cc1-c1ncnc2[nH]c(C3=CCN(C(=O)C4CCCOC4)CC3)cc12 (centres unmarked) [Example 15, 4-[4-(5-fluoro-2-methoxyphenyl)-7H-pyrrolo[2,3-d]pyrimidin-6-yl]-3,6-dihydropyridin-1(2H)-yl(tetrahydro-2H-pyran-3-yl)methanone]	210	86
CCN1CCC(C(=O)N2CC=C(c3cc4c(-c5cc(F)ccc5OC)ncnc4[nH]3)CC2)C1 (centres unmarked) [Example 16, (1-ethylpyrrolidin-3-yl){4-[4-(5-fluoro-2-methoxyphenyl)-7H-pyrrolo[2,3-d]pyrimidin-6-yl]-3,6-dihydropyridin-1(2H)-yl}methanone]	1100	150
COCC(=O)N1CC=C(c2cc3c(-c4cc(F)ccc4OC)ncnc3[nH]2)CC1 [Example 18, 1-{4-[4-(5-fluoro-2-methoxyphenyl)-7H-pyrrolo[2,3-d]pyrimidin-6-yl]-3,6-dihydropyridin-1(2H)-yl}-2-methoxyethanone]	400	130
C=CCNC(=O)N1CC=C(c2cc3c(-c4cc(F)ccc4OC)ncnc3[nH]2)CC1 [Example 19, 4-[4-(5-fluoro-2-methoxyphenyl)-7H-pyrrolo[2,3-d]pyrimidin-6-yl]-N-(prop-2-en-1-yl)-3,6-dihydropyridine-1(2H)-carboxamide]	180	88
COc1ccc(F)cc1-c1ncnc2[nH]c(C3=CCN(Cc4ccccc4)CC3)cc12 [Example 21, 6-(1-benzyl-1,2,3,6-tetrahydropyridin-4-yl)-4-(5-fluoro-2-methoxyphenyl)-7H-pyrrolo[2,3-d]pyrimidine]	440	35
COc1ccc(F)cc1-c1ncnc2[nH]c(C3=CCN(Cc4ccc(C#N)cc4)CC3)cc12 [Example 22, 4-({4-[4-(5-fluoro-2-methoxyphenyl)-7H-pyrrolo[2,3-d]pyrimidin-6-yl]-3,6-dihydropyridin-1(2H)-yl}methyl)benzonitrile]	1100	240
COc1ccc(F)cc1-c1ncnc2[nH]c(C3=CCN(Cc4cccc(C#N)c4)CC3)cc12 [Example 23, 3-({4-[4-(5-fluoro-2-methoxyphenyl)-7H-pyrrolo[2,3-d]pyrimidin-6-yl]-3,6-dihydropyridin-1(2H)-yl}methyl)benzonitrile]	420	270
COc1ccc(F)cc1-c1ncnc2[nH]c(C3=CCN(CC4CCCO4)CC3)cc12 (centres unmarked) [Example 24, 4-(5-fluoro-2-methoxyphenyl)-6-[1-(tetrahydrofuran-2-ylmethyl)-1,2,3,6-tetrahydropyridin-4-yl]-7H-pyrrolo[2,3-d]pyrimidine]	250	100
COc1ccc(F)cc1-c1ncnc2[nH]c(C3=CCN(Cc4ccc(NC(C)=O)cc4)CC3)cc12 [Example 25, N-[4-({4-[4-(5-fluoro-2-methoxyphenyl)-7H-pyrrolo[2,3-d]pyrimidin-6-yl]-3,6-dihydropyridin-1(2H)-yl}methyl)phenyl]acetamide]	58	76
COc1ccc(F)cc1-c1ncnc2[nH]c(C3=CCN(Cc4ccccn4)CC3)cc12 [Example 26, 4-(5-fluoro-2-methoxyphenyl)-6-[1-(pyridin-2-ylmethyl)-1,2,3,6-tetrahydropyridin-4-yl]-7H-pyrrolo[2,3-d]pyrimidine]	610	190
COc1ccc(F)cc1-c1ncnc2[nH]c(C3=CCN(Cc4ccncc4)CC3)cc12 [Example 27, 4-(5-fluoro-2-methoxyphenyl)-6-[1-(pyridin-4-ylmethyl)-1,2,3,6-tetrahydropyridin-4-yl]-7H-pyrrolo[2,3-d]pyrimidine]	720	220
COc1ccc(F)cc1-c1ncnc2[nH]c(C3=CCN(Cc4ccnc(C(F)(F)F)c4)CC3)cc12 [Example 28, 4-(5-fluoro-2-methoxyphenyl)-6-(1-{[2-(trifluoromethyl)pyridin-4-yl]methyl}-1,2,3,6-tetrahydropyridin-4-yl)-7H-pyrrolo[2,3-d]pyrimidine]	1000	220
CS(=O)(=O)N1CC=C(c2cc3c(-c4cc(NCc5ccccc5)ccc4F)ncnc3[nH]2)CC1 [Example 29, N-benzyl-4-fluoro-3-{6-[1-(methylsulfonyl)-1,2,3,6-tetrahydropyridin-4-yl]-7H-pyrrolo[2,3-d]pyrimidin-4-yl}aniline]	290	130
CS(=O)(=O)N1CC=C(c2cc3c(-c4cc(NCc5ccc(C#N)cc5)ccc4F)ncnc3[nH]2)CC1 [Example 30, 4-{[(4-fluoro-3-{6-[1-(methylsulfonyl)-1,2,3,6-tetrahydropyridin-4-yl]-7H-pyrrolo[2,3-d]pyrimidin-4-yl}phenyl)amino]methyl}benzonitrile]	230	130
CS(=O)(=O)N1CC=C(c2cc3c(-c4cc(NCc5cccc(C#N)c5)ccc4F)ncnc3[nH]2)CC1 [Example 31, 3-{[(4-fluoro-3-{6-[1-(methylsulfonyl)-1,2,3,6-tetrahydropyridin-4-yl]-7H-pyrrolo[2,3-d]pyrimidin-4-yl}phenyl)amino]methyl}benzonitrile]	160	110
CS(=O)(=O)N1CC=C(c2cc3c(-c4cc(NCC5CCCO5)ccc4F)ncnc3[nH]2)CC1 (centres unmarked) [Example 32, 4-fluoro-3-{6-[1-(methylsulfonyl)-1,2,3,6-tetrahydropyridin-4-yl]-7H-pyrrolo[2,3-d]pyrimidin-4-yl}-N-(tetrahydrofuran-2-ylmethyl)aniline]	3600	260
COc1ccc(F)cc1-c1ncnc2[nH]c(C3=CCN(Cc4cccnc4)CC3)cc12 [Example 34, 4-(5-fluoro-2-methoxyphenyl)-6-[1-(pyridin-3-ylmethyl)-1,2,3,6-tetrahydropyridin-4-yl]-7H-pyrrolo[2,3-d]pyrimidine]	630	170
COc1ccc(F)cc1-c1ncnc2[nH]c(C3=CCN(Cc4cccc(F)c4)CC3)cc12 [Example 35, 6-[1-(3-fluorobenzyl)-1,2,3,6-tetrahydropyridin-4-yl]-4-(5-fluoro-2-methoxyphenyl)-7H-pyrrolo[2,3-d]pyrimidine]	930	150
